Measurements as given in patent US7361735B2, “LITAF binding site peptides and methods of using the same” (Trustees of Boston University, priority 2003, dated 2008).

Tests used:
THP-1 cells = assay: ELISA of hTNF-α after Chariot delivery of peptide; type: cell-based, human; conditions: PMA-matured THP-1; Chariot/peptide 1, 10, 100 ng/ml or 1 μg/ml; 24 hours; ELISA of supernatant
Protocol: FIG. 5 is a graphical representation of the production of TNF-α in THP-1 cells after transfection of peptide A, B, C, or HA with Chariot as described herein. The concentration of active of TNF-α was induced by various concentrations of peptide and measured by duplicate ELISA tests at the same condition and graphed.
THP-1 cells were induced to maturation by addition of […] (Sigma) and incubated at 37° C., 5% CO2 for 20 hrs, then washed with PBS twice, and stimulated (delivered) with Chariot/peptide complex of various concentrations of either peptide A or B or C or HA in a 96-well plate at 2×10^4 cells/well as indicated in the text. After 24 hrs of incubation at 37° C., 5% CO2, culture supernatants were harvested, centrifuged at 1,500×g to remove cell debris, then TNF-α was measured by ELISA (ABRAXIS, Hatboro, Pa.) and quantified on a Model 680 Microplate Reader (BioRad).
Therefore, peptides A, B, and C, were synthesized based on the amino acid sequence of hLITAF. […] After pretreatment with PMA, peptides A, B, C, or HA were introduced into THP-1 cells using Chariot, as described herein, in concentrations of 1, 10, 100 ng/ml or 1 μg/ml. After 24 hours, culture supernatants were harvested and TNF-α was quantified by ELISA. […] In contrast, peptide B increased TNF-α secretion by as much as 2.4 fold over unstimulated levels.

wtTNFP (−991 to 1) = assay: Luciferase reporter assay, wild type full-length TNF-α promoter, THP-1; type: cell-based, human; conditions: 1 μg/ml peptide via Chariot or 100 ng/ml LPS, normalized by β-gal, peptide B compared with HA-stimulated cells
Protocol: (§1) FIGS. 6a and 6b are graphical representations of the transcriptional activity of a series of deletion constructs of TNF-α promoter DNA. FIG. 6a depicts the activity measured due to either the promoter wtTNFβ (−991 to 1) or mtTNFβ1 (−991 to 1Δ−515 to −511). pGL3-basic transfected cell as unstimulated control was used. After transfection of DNAs for 3 hrs, the cells were washed with PBS twice, and stimulated with 100 ng/ml LPS (E. coli) or transfected with Chariot/peptide complex of 1 μg/ml of either peptide A, B, C, or HA. Triplicate assays were performed. Values are normalized by β-gal production and graphed. FIG. 6b depicts the activity measured due to the promoter mtTNFβ2 (−550 to −487 plus TATA box) or mtTNFβ3 (−550 to −487Δ−515 to −511 plus TATA box). LPS or peptides as stimuli and controls were used at the same condition as described above.
(§2) The following series of hTNF-α promoter DNA fragments were subcloned (FIG. 1b) into the pGL3-Basic vector, which has a promoterless and enhancerless luciferase reporter gene, available from Pharmacia: 1. wtTNFP (−991 to 1) was generated by PCR with primer pairs: 5′-[…]-3′ (SEQ ID NO: 20′) and 5′-[…]-3′(SEQ ID NO: 21′). 2. mtTNFP1 (−991 to 1Δ−515 to −511). The first in-frame mutant hTNF-α promoter was generated by PCR with primer pairs, 5′-[…]-3′(SEQ ID NO: 20) and 5′-[…] (SEQ ID NO: 22). The second mutant DNA was generated by PCR with primer pairs, 5′-[…]-3′ (SEQ ID NO: 23) and 5′-[…]-3′ (SEQ ID NO: 21). Both first and second DNA fragments above were purified and diluted as template to 1 ng/reaction and finally amplified by PCR with primer pairs, 5′-[…]-3′ (SEQ ID NO: 20) and 5′-[…]-3′ (SEQ ID NO: 21). […]
(§3) THP-1 cells (5×10^6/well) were induced to maturation by addition of […] (Sigma) and incubated at 37° C., 5% CO2 for 20 hrs, washed with PBS twice, co-transfected with 1 μg DNAs by using Fugene 6 (Roche Molecular Biochemicals) for 3 hrs, washed with PBS, then individually transfected with Chariot/peptide complex of 1 μg/ml peptide A, B, C or HA or stimulated with 100 ng/ml LPS (E. coli) for 3 hrs, washed with PBS, incubated at 37° C., 5% CO2, overnight. […] Luciferase activity in the lysates was measured using a commercial kit (Luciferase Reporter Assay System, Promega) and normalized by β-gal assay in the same lysates as described (McClane et al., Hum. Gene Ther. 10:739-746, 1997).
(§4) To determine whether the short sequence CTCCC (−515 to −511) in the hTNF-a promoter is responsible for hLITAF binding activity, a series of hTNF-α promoter/reporter constructs were cloned (see FIG. 1b) and individually transiently transfected into THP-1 cells. […] TNF-α promoter activity was subsequently analyzed using the luciferase assay. […]

[1] = test system: mtTNFP1 (−991 to 1Δ−515 to −511); assay: Luciferase reporter assay, full-length TNF-α promoter lacking CTCCC, THP-1; type: cell-based, human; conditions: 1 μg/ml peptide via Chariot or 100 ng/ml LPS, FIG. 6a
Protocol: as §1, §2, §3, §4

[2] = test system: mtTNFP2 (−550 to −487 plus TATA Box); assay: Luciferase reporter assay, short TNF-α promoter fragment with LITAF binding site, THP-1; type: cell-based, human; conditions: 1 μg/ml peptide via Chariot or 100 ng/ml LPS, in comparison with the HA control, FIG. 6b
Protocol: as §1, §2, §3, §4

[3] = test system: mtTNFP3 (−550 to −487Δ−515 to −511 plus TATA Box); assay: Luciferase reporter assay, short TNF-α promoter fragment lacking LITAF binding site, THP-1; type: cell-based, human; conditions: 100 ng/ml LPS, FIG. 6b
Protocol: as §1, with “above. […]” for “above.”
as §4

[4] = test system: COS-7 cells (wild-type p53); assay: Western blot of p53 accumulation after LPS; type: cell-based; conditions: LPS 500 ng/ml for 4 hrs
Protocol: (§5) FIGS. 7a and 7b show the analysis of the accumulation of p53 and induction of LITAF mRNA. […] 60 μg of crude cell lysate was loaded per lane and separated on an 8% SDS-PAGE, which were then transferred to Immobilon-P. The protein blots were probed individually with monoclonal antibodies specific for p53 (DO-1, Santa cruz) or with goat polyclonal antibodies for actin (C-11, Santa cruz). p53 proteins were expressed well in lanes 2 through 4. […] Cells were incubated with 100 or 500 ng/ml of LPS for 4 or 24 hrs. Total cellular RNA was purified by using the Oligotex mRNA Kit (Qiagen). mRNA was size-fractionated on a denaturing formaldehyde-agarose gel (1.1%) and transferred onto a Hybond-N^+ membrane (Amersham). These filters were hybridized with an γ-^32P ATP-labeled DNA probe and then autoradiographed with BIOMAX MR film (Kodak).
(§6) The accumulation of p53 after LPS stimulation was investigated.

[5] = test system: COS-7 cells (wild-type p53); assay: Northern blot of LITAF transcript after LPS, COS-7; type: cell-based; conditions: LPS 500 ng/ml for 4 hrs
Protocol: as §5, §6

[6] = test system: WTK-1 cells (p53-deficient cell line); assay: Northern blot of LITAF transcript after LPS, WTK-1; type: cell-based; conditions: WTK-1 p53-deficient cells
Protocol: as §5, §6

COS-7 cells = assay: TUNEL analysis of DNA fragmentation of apoptotic cells; type: cell-based
Protocol: FIG. 8 depicts the TUNEL analysis of DNA fragmentation of apoptotic COS-7 cells in response to LPS. After LPS stimulation, cells were fixed in 4% methanol-free formaldehyde solution for 30 min at room temperature, then permeated with 0.1% Triton X-100 for 2 min at 4° C. After washing with PBS, the samples were stained according to the manufacturer's recommended protocol for TUNEL (Promega.). The fragmentation of apoptotic COS-7 cell nuclei was analyzed by fluorescence microscopy (panels g, f, or h). The corresponding field was also observed by standard phase contrast microscopy (panels a, b, or c).
Since the induction of LITAF follows the accumulation of p53 (FIG. 7a), the DNA fragmentation of apoptotic COS-7 cells after 4 hrs with LPS stimulation was investigated.

[7] = test system: wtTNFβ, TNF-α promoter from −991 to 1; assay: Luciferase reporter assay, wild-type TNF-α promoter, WTK-1; type: cell-based; conditions: WTK-1 cells; normalized to β-gal; LITAF overexpressed alone without LPS stimulation
Text: (§7) FIG. 10 is a graphical representation of the analysis of LITAF function in luciferase reporter constructs. The series of TNF-α promoter DNA fragments were subcloned into the pGL3 basic vector (Pharmacia), a promoterless and enhancerless luciferase reporter gene. One construct, named wtTNFβ, contained TNF-α promoter from −991 to 1. Another one, mtTNFβ1, was a mutant inserted with the promoter from −991 to 1, but lacking the LITAF binding site. WTK-1 cells (grown to 85% confluence) in a 6-well plate at 1.2×10^5 cells/well were co-transfected with 1 μg DNAs including pCMV-LITAF recombinant vector, pVMVβ-gal and pGL3 basic as control by Fugene 6 (Roche Molecular Biochemicals) for 3 hrs, washed with PBS twice, then individually stimulated with LPS or Chariot/peptide complex of 100 ng/ml peptide B (peptide fragment of LITAF representing aa 152-228) or HA as control for 3 hrs, washed with PBS, incubated at 37° C., 5% CO2, o/n. The β-galactosidase gene was included in all transfections. The cells were harvested and lysed approximately 12 hrs after transfection. The promoter activity from each lysate sample was measured using the luciferase reporter assay system (Promega) and normalized to β-gal expression in the same sample, as described in the methods section below.
(§8) The activation of TNF-α gene expression by LITAF was investigated. […]

[8] = test system: mtTNFβ1, promoter from −991 to 1 lacking the LITAF binding site; assay: Luciferase reporter assay, mutant TNF-α promoter lacking LITAF binding site, WTK-1; type: cell-based; conditions: WTK-1 cells; LPS stimulation
Text: as §7, §8

| Substance | TNF-α secretion over unstimulated levels (THP-1 cells) | hTNF-α promoter activity (luciferase expression), wild type promoter (wtTNFP (−991 to 1)) | promoter activity (luciferase), mutant TNF-α promoter lacking the CTCCC motif [1] | expression of luciferase, shorter reporter plasmid containing the LITAF binding site [2] | activation of shorter reporter plasmid lacking the LITAF binding site [3] | inducible p53 protein [4] | LITAF transcript [5] | LITAF transcription [6] | apoptosis (TUNEL) (COS-7 cells; 100 ng/ml of LPS) | TUNEL-positive (apoptotic) cells (COS-7 cells; 500 ng/ml LPS for at least 4 hrs) | TNF-α promoter activity (luciferase), wild-type promoter/reporter plasmid [7] | TNF-α promoter activity (luciferase), mutant promoter/reporter plasmid [8] |
| --- | --- | --- | --- | --- | --- | --- | --- | --- | --- | --- | --- | --- |
| LSSSFTPGGGSALVVS [peptide C] | did not induce any significant TNF-α secretion | did not result in any significant increase | no appreciable induction | unable to activate | – | – | – | – | – | – | – | – |
| Lipopolysaccharide [LPS] | – | similarly activated | similarly activated | strongly dependent on the presence of the LITAF binding site | activation not observed | detected | detected | did not induce LITAF transcription | did not induce apoptosis | significantly increased | similarly activated | similarly activated |
| SQTWREPGAAGSPFHL [peptide B] | ≤ 2.4 fold | ~2 fold | no appreciable induction | 2.3 fold | – | – | – | – | – | – | – | – |
| SYYTQPAPIPNNNPIT VQTVY (SYYTQPAPIPNNNPITVQTVY) [peptide A] | did not induce any significant TNF-α secretion | did not result in any significant increase | no appreciable induction | unable to activate | – | – | – | – | – | – | – | – |
| YPYDVPDYASL [HA, reference compound] | did not induce any significant TNF-α secretion | – | – | – | – | – | – | – | – | – | – | – |
